{"source": "patent US20210230170A1", "about": "“KRAS G12C INHIBITORS” (Mirati Therapeutics, Inc., priority 2018, published 2021)"}
{"target": "T1, KRas G12C (Homo sapiens, UniProt P01116, G12C)", "T1 construct": "NCI-H358 cells (ATCC CRL-5807) express KRas G12C; host or cells: NCI-H358", "T1 sequence (P01116 1-188 isoform P01116-2 G12C)": "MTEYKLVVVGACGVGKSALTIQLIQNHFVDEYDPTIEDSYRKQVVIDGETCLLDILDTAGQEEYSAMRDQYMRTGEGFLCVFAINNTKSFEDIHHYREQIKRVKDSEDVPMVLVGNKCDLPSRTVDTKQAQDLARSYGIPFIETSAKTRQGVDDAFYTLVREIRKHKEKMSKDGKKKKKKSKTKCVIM", "assay": "Inhibition of KRas G12C in NCI-H358 cells measured by phosphorylated ERK (Phospho-ERK)", "assay_type": "cell-based", "conditions": "pERK(Thr202/Tyr204) signal normalized with GAPDH, percent of DMSO control, 3 hours compound treatment", "protocol": "The cellular inhibition of KRAs G12C by exemplary compounds of the present invention was determined by measuring the amount of a downstream marker of KRas activity, phosphorylated ERK (“Phospho-ERK”).\nNCI-H358 cells (ATCC CRL-5807) express KRas G12C and were grown in RPMI medium supplemented with 10% fetal bovine serum, penicillin/streptomycin and 10 mM HEPES. Cells were plated in poly-D-Lysine coated 96-well plates at a concentration of 50,000 cells/well and allowed to attach for 8-12 hours. Diluted compounds were then added at a final concentration of 0.5% DMSO. After 3 hours, the medium was removed, 150 μL of 4% formaldehyde was added and the plates were incubated for 20 minutes. The plates were washed with PBS, and permeabilized using 150 μL of ice cold 100% methanol for 10 minutes. Non-specific antibody binding to the plates was blocked using 100 μL Licor Blocking Buffer (Li-Cor Biotechnology, Lincoln Nebr.) for 1 hour at room temperature. Positive control samples and samples lacking cells were parallel processed with test samples as standards.\nThe amount Phospho-ERK was determined using an antibody specific for the phosphorylated form of ERK and compared to the amount of GAPDH. Primary antibodies used for detection were added as follows: Phospho-ERK (Cell Signaling cs9101) diluted 1:500 and GAPDH (Millipore MAB374) diluted 1:5000 in Licor block+0.05% Tween 20. The plates were incubated for 2 hours at room temperature. The plates were washed with PBS+0.05% Tween 20.\nSecondary antibodies used to visualize primary antibodies were added as follows: Anti-rabbit-680 diluted 1:1000 and Anti-mouse-800 diluted 1:1000 in Licor Block+0.05% Tween 20 and incubated for 1 hour at room temperature. The plates were washed with PBS+0.05% Tween 20. A 100 μL aliquot of PBS was added to each well and the plates were read on a LICOR AERIUS plate reader.\nThe pERK(Thr202/Tyr204) signal was normalized with the GAPDH signal and percent of DMSO control values were calculated. IC50 values were generated using a 4 parameter fit of the dose response curve. Key: “A”≤500 nM; “B”>500 nM and ND=not determined.", "units": {"IC50": "nM"}}
{"smiles": "C=C(F)C(=O)N1CCN(c2nc(OC[C@@H]3CCCN3C)nc3c2CCCN(c2c(C)ccc4[nH]ncc24)C3)C[C@@H]1CC#N", "note": "[Example 20, 2-[(2S)-1-(2-fluoroprop-2-enoyl)-4-[8-(5-methyl-1H-indazol-4-yl)-2-[[(2S)-1-methylpyrrolidin-2-yl]methoxy]-5,6,7,9-tetrahydropyrimido[4,5-c]azepin-4-yl]piperazin-2-yl]acetonitrile]", "IC50": "> 500"}
{"smiles": "C=CC(=O)N1CCN(c2nc(OC[C@@H]3CCCN3C)nc3c2CCCN(c2cccc4cccc(C(F)(F)F)c24)C3)C[C@@H]1CC#N", "note": "[Example 21, 2-((S)-1-acryloyl-4-(2-(((S)-1-methylpyrrolidin-2-yl)methoxy)-8-(8-(trifluoromethyl)naphthalen-1-yl)-6,7,8,9-tetrahydro-5H-pyrimido[4,5-c]azepin-4-yl)piperazin-2-yl)acetonitrile]", "IC50": "> 500"}
{"smiles": "C=C(F)C(=O)N1CCN(c2nc(OC[C@@H]3CCCN3C)nc3c2CCCN(c2cccc4ccccc24)C3)C[C@@H]1CC#N", "note": "[Example 22, 2-((S)-1-(2-fluoroacryloyl)-4-(2-(((S)-1-methylpyrrolidin-2-yl)methoxy)-8-(naphthalen-1-yl)-6,7,8,9-tetrahydro-5H-pyrimido[4,5-c]azepin-4-yl)piperazin-2-yl)acetonitrile]", "IC50": "> 500"}
{"smiles": "C=C(F)C(=O)N1CCN(c2ncnc3c2CCCN(c2cccc4cccc(C)c24)C3)C[C@@H]1CC#N", "note": "[Example 23, 2-[(2S)-1-(2-fluoroprop-2-enoyl)-4-[8-(8-methyl-1-naphthyl)-5,6,7,9-tetrahydropyrimido[4,5-c]azepin-4-yl]piperazin-2-yl]acetonitrile]", "IC50": "> 500"}
{"smiles": "C=CC(=O)N1CCN(c2ncnc3c2CCCN(c2cccc4cccc(C)c24)C3)C[C@@H]1CC#N", "note": "[Example 25, 2-[(2S)-4-[8-(8-methyl-1-naphthyl)-5,6,7,9-tetrahydropyrimido[4,5-c]azepin-4-yl]-1-prop-2-enoyl-piperazin-2-yl]acetonitrile]", "IC50": "> 500"}
{"smiles": "C=C(F)C(=O)N1CCN(c2nc(OC[C@@H]3CCCN3C)nc3c2CCCN(c2cccc4[nH]ncc24)C3)C[C@@H]1CC#N", "note": "[Example 26, 2-((S)-4-(8-(1H-indazol-4-yl)-2-(((S)-1-methylpyrrolidin-2-yl)methoxy)-6,7,8,9-tetrahydro-5H-pyrimido[4,5-c]azepin-4-yl)-1-(2-fluoroacryloyl)piperazin-2-yl)acetonitrile]", "IC50": "> 500"}
